Measurements: patent publication US20260102383A1, “LPAR1 Inhibitors” (AbbVie Inc., priority 2024, published 2026)

Target: T1, human LPAR1 (Homo sapiens, UniProt Q92633)
T1 construct: host or cells: TangoEDG2-bla U2OS cells
Assay: Arrestin assay (Arrestin Reporter EDG2-bla U2OS), inhibition of LPA-stimulated signal
Type: cell-based
Conditions: TangoEDG2-bla U2OS cells expressing human LPAR1; 0.25 μM LPA; read-out: Arrestin Reporter EDG2-bla U2OS Human Merged IC50
Method in brief: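 TangoEDG2-bla U2OS cells (1×10^4/well, plated 18-20 h) were preincubated 1 h at 37 °C with compound (12-point, 3-fold, 10 μM to 0.00006 μM), then stimulated 3 h with 0.25 μM LPA final. LiveBLAzer FRET B/G 460/530 nm emission ratio gave % inhibition; IC50 from 4-parameter variable-slope fit.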

T1 sequence (Q92633 whole entry): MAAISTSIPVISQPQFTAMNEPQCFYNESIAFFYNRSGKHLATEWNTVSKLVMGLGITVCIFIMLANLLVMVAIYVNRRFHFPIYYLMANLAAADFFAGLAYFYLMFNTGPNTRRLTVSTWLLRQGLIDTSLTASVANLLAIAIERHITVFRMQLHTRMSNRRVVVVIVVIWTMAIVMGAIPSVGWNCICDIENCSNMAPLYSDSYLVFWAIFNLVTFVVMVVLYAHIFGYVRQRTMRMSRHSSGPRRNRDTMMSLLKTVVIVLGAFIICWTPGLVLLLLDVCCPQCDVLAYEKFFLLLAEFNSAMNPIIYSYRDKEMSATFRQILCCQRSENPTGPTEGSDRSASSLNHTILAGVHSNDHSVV

IC50	Compound
28.4 nM	CC(C)c1ccnn1C1(C(=O)Nc2ccc(Cl)cc2OC(F)F)CCN(C[C@H](C(=O)O)C2COCCOC2)CC1 [Compound 216, (2R)-3-[4-[[4-chloro-2-(difluoromethoxy)phenyl]carbamoyl]-4-(5-isopropylpyrazol-1-yl)-1-piperidyl]-2-(1,4-dioxepan-6-yl)propanoic acid]
71.5 nM	CC(C)c1ccnn1C1(C(=O)Nc2ccc(Cl)cc2OC(F)F)CCN([C@H]2C[C@@](C(=O)O)(C(F)F)C2)CC1 [Compound 220, (1s,3s)-3-[4-[[4-chloro-2-(difluoromethoxy)phenyl]carbamoyl]-4-(5-isopropylpyrazol-1-yl)-1-piperidyl]-1-(difluoromethyl) cyclobutanccarboxylic acid]
27.7 nM	CC(C)c1ccnn1C1(C(=O)Nc2ccc(Cl)cc2OC(F)F)CCN([C@H]2C[C@](C(=O)O)(C(F)F)C2)CC1 [Compound 221]
47.9 nM	CC(C)c1ccnn1C1(C(=O)Nc2ccc(Cl)cc2OC(F)F)CCN(C[C@@H](C(=O)O)[C@@H](C)O)CC1 [Compound 222, (2R,3R)-2-[[4-[[4-chloro-2-(difluoromethoxy)phenyl]carbamoyl]-4-(5-isopropylpyrazol-1-yl)-1-piperidyl]methyl]-3-hydroxy-butanoic acid]
59.5 nM	CC(C)c1ccnn1C1(C(=O)Nc2ccc(Cl)cc2OC(F)F)CCN(C[C@@H](C(=O)O)[C@H](C)O)CC1 [Compound 223, (2R,3S)-2-[[4-[[4-chloro-2-(difluoromethoxy)phenyl]carbamoyl]-4-(5-isopropylpyrazol-1-yl)-1-piperidyl]methyl]-3-hydroxy-butanoic acid]
31.1 nM	COc1cnn([C@H](CN2CCC(C(=O)Nc3ccc(Cl)cc3OC(F)F)(n3nccc3C(C)C)CC2)C(=O)O)c1 [Compound 224, (2R)-3-[4-[[4-chloro-2-(difluoromethoxy)phenyl]carbamoyl]-4-(5-isopropylpyrazol-1-yl)-1-piperidyl]-2-(4-methoxypyrazol-1-yl)propanoic acid]
30.9 nM	COc1cnn([C@@H](CN2CCC(C(=O)Nc3ccc(Cl)cc3OC(F)F)(n3nccc3C(C)C)CC2)C(=O)O)c1 [Compound 225, (2S)-3-[4-[[4-chloro-2-(difluoromethoxy)phenyl]carbamoyl]-4-(5-isopropylpyrazol-1-yl)-1-piperidyl]-2-(4-methoxypyrazol-1-yl)propanoic acid]
39.9 nM	CO[C@H]1C[C@@H]([C@H](CN2CCC(C(=O)Nc3ccc(Cl)cc3OC(F)F)(n3nccc3C(C)C)CC2)C(=O)O)C1 [Compound 226]
38.3 nM	CO[C@H]1C[C@@H]([C@@H](CN2CCC(C(=O)Nc3ccc(Cl)cc3OC(F)F)(n3nccc3C(C)C)CC2)C(=O)O)C1 [Compound 227, (2S)-3-[4-[[4-chloro-2-(difluoromethoxy)phenyl]carbamoyl]-4-(5-isopropylpyrazol-1-yl)-1-piperidyl]-2-((1s,3R)-3-methoxycyclobutyl) propanoic acid]
16.6 nM	CCOC[C@H](CN1CCC(C(=O)Nc2ccc(Cl)cc2OC(F)F)(n2nccc2C(C)C)CC1)C(=O)O [Compound 228, (2S)-2-[[4-[[4-chloro-2-(difluoromethoxy)phenyl]carbamoyl]-4-(5-isopropylpyrazol-1-yl)-1-piperidyl]methyl]-3-ethoxy-propanoic acid]
29.2 nM	CO[C@H]1C[C@H]([C@H](CN2CCC(C(=O)Nc3ccc(Cl)cc3OC(F)F)(n3nccc3C(C)C)CC2)C(=O)O)C1 [Compound 229, (2R)-3-[4-[[4-chloro-2-(difluoromethoxy)phenyl]carbamoyl]-4-(5-isopropylpyrazol-1-yl)-1-piperidyl]-2-((1r,3R)-3-methoxycyclobutyl) propanoic acid]
25.5 nM	CO[C@H]1C[C@H]([C@@H](CN2CCC(C(=O)Nc3ccc(Cl)cc3OC(F)F)(n3nccc3C(C)C)CC2)C(=O)O)C1 [Compound 230, (2S)-3-[4-[[4-chloro-2-(difluoromethoxy)phenyl]carbamoyl]-4-(5-isopropylpyrazol-1-yl)-1-piperidyl]-2-((1r,3S)-3-methoxycyclobutyl) propanoic acid]
14.2 nM	CCOC[C@@H](CN1CCC(C(=O)Nc2ccc(Cl)cc2OC(F)F)(n2nccc2C(C)C)CC1)C(=O)O [Compound 231, (2R)-2-[[4-[[4-chloro-2-(difluoromethoxy)phenyl]carbamoyl]-4-(5-isopropylpyrazol-1-yl)-1-piperidyl]methyl]-3-ethoxy-propanoic acid]
8.37 nM	CC(C)c1ccnn1C1(C(=O)Nc2ccc(Cl)cc2OC(F)F)CCN(CC(COCC(F)(F)F)C(=O)O)CC1 (centres unmarked) [Compound 232, 2-[[4-[[4-chloro-2-(difluoromethoxy)phenyl]carbamoyl]-4-(5-isopropylpyrazol-1-yl)-1-piperidyl]methyl]-3-(2.2,2-trifluoroethoxy)propanoic acid]
8.94 nM	CC(C)c1ccnn1C1(C(=O)Nc2ccc(Cl)cc2OC(F)F)CCN(C[C@@H](COCC(F)(F)F)C(=O)O)CC1 [Compound 233, (2S)-2-[[4-[[4-chloro-2-(difluoromethoxy)phenyl]carbamoyl]-4-(5-isopropylpyrazol-1-yl)-1-piperidyl]methyl]-3-(2,2,2-trifluoroethoxy)propanoic acid]
9.54 nM	CC(C)c1ccnn1C1(C(=O)Nc2ccc(Cl)cc2OC(F)F)CCN(C[C@H](COCC(F)(F)F)C(=O)O)CC1 [Compound 234, (2R)-2-[[4-[[4-chloro-2-(difluoromethoxy)phenyl]carbamoyl]-4-(5-isopropylpyrazol-1-yl)-1-piperidyl]methyl]-3-(2,2,2-trifluoroethoxy)propanoic acid]
20.9 nM	CC(C)c1ccnn1C1(C(=O)Nc2ccc(Cl)cc2OC(F)F)CCN(C[C@@](C)(O)C(=O)O)CC1 [Compound 235, (2R)-3-[4-[[4-chloro-2-(difluoromethoxy)phenyl]carbamoyl]-4-(5-isopropylpyrazol-1-yl)-1-piperidyl]-2-hydroxy-2-methyl-propanoic acid]
64.8 nM	CC(C)c1ccnn1C1(C(=O)Nc2ccc(Cl)cc2OC(F)F)CCN(C[C@](C)(O)C(=O)O)CC1 [Compound 236, (2S)-3-[4-[[4-chloro-2-(difluoromethoxy)phenyl]carbamoyl]-4-(5-isopropylpyrazol-1-yl)-1-piperidyl]-2-hydroxy-2-methyl-propanoic acid]
16.5 nM	CC(C)c1ccnn1C1(C(=O)Nc2ccc(Cl)cc2OC(F)F)CCN(CC(CN2CCOC(F)(F)C2)C(=O)O)CC1 (centres unmarked) [Compound 237, 2-[[4-[[4-chloro-2-(difluoromethoxy)phenyl]carbamoyl]-4-(5-isopropylpyrazol-1-yl)-1-piperidyl]methyl]-3-(2,2-difluoromorpholin-4-yl)propanoic acid]
126 nM	CC(C)c1ccnn1C1(C(=O)Nc2ccc(Cl)cc2OC(F)F)CCN(C[C@@H](CN2CCOCC2)C(=O)O)CC1 [Compound 238, (2S)-2-[[4-[[4-chloro-2-(difluoromethoxy)phenyl]carbamoyl]-4-(5-isopropylpyrazol-1-yl)-1-piperidyl]methyl]-3-morpholino-propanoic acic]
62.3 nM	CC(C)c1ccnn1C1(C(=O)Nc2ccc(Cl)cc2OC(F)F)CCN(C[C@H](CN2CCOCC2)C(=O)O)CC1 [Compound 239, (2R)-2-[[4-[[4-chloro-2-(difluoromethoxy)phenyl]carbamoyl]-4-(5-isopropylpyrazol-1-yl)-1-piperidyl]methyl]-3-morpholino-propanoic acid]
23.8 nM	CC(C)c1c(F)cnn1C1(C(=O)Nc2ccc(Cl)cc2OC(F)F)CCN(CC(C)(C)C(=O)O)CC1 [Compound 240, 3-[4-[[4-chloro-2-(difluoromethoxy)phenyl]carbamoyl]-4-(4-fluoro-5-isopropyl-pyrazol-1-yl)-1-piperidyl]-2,2-dimethyl-propanoic acid]

Compound	IC50
(2S)-3-[4-[[4-chloro-2- (difluoromethoxy)phenyl] carbamoyl]-4-1(65)-6- methyl-5,6-dihydro-4H- cyclopenta[c]pyrazol-1- yl]-1-piperidyl]-2- tetrahydropyran-4-yl- propanoic acid [Compound 174]	50.2 nM
